Assay results reported in ChEMBL document CHEMBL1143556 (J Med Chem, 2005).

What was measured:
[1] = target: T1, Peroxisome proliferator-activated receptor alpha (Homo sapiens, UniProt Q07869); experiment: Inhibition of human Peroxisome proliferator activated receptor alpha
T1 sequence (Q07869 whole entry): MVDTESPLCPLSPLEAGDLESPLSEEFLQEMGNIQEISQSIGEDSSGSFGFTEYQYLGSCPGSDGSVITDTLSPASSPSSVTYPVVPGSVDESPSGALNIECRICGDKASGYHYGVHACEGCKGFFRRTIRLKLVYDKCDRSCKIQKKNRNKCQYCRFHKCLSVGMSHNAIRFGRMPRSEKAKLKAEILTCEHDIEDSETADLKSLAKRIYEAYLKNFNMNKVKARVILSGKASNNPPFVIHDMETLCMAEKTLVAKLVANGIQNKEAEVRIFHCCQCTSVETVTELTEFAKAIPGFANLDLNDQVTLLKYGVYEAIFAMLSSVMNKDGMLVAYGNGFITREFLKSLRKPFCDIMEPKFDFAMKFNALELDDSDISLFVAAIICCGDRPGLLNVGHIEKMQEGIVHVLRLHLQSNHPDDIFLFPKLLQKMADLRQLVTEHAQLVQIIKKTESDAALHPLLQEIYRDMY

[2] = target: T1, Peroxisome proliferator-activated receptor alpha; experiment: Effective concentration against human Peroxisome proliferator activated receptor alpha
[3] = target: T2, Peroxisome proliferator-activated receptor gamma (Homo sapiens, UniProt P37231)
T2 sequence (P37231 whole entry): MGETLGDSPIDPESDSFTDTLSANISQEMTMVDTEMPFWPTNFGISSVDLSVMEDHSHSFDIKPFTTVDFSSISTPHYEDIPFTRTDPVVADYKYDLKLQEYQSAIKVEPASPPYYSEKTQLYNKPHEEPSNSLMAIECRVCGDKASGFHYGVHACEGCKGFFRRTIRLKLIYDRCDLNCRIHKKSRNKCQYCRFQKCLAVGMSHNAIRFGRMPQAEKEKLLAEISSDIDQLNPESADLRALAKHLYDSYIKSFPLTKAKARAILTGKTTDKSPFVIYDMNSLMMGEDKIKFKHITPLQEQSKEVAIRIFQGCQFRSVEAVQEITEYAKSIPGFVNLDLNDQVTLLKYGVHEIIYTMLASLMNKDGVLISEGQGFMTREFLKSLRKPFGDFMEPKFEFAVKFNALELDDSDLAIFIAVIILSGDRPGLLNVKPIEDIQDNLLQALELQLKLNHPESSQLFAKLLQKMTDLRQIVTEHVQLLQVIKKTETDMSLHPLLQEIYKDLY

[4] = target: T2, Peroxisome proliferator-activated receptor gamma; experiment: Inhibition of human Peroxisome proliferator activated receptor gamma
Rattus norvegicus [5] = experiment: Time to maximum concentration was measured in male SD rat after 10 mg/kg oral dosage; n=3
Rattus norvegicus [6] = experiment: Clearance was measured in male SD rat after 5 mg/kg intra arterial dosage; n=3
Rattus norvegicus [7] = experiment: Half life was measured in male SD rat after 5 mg/kg intra arterial dosage; n=3

Row | EC50 [3] [µM] | IC50 [4] [µM] | SMILES | IC50 [1] [µM] | EC50 [2] [µM] | Tmax (Rattus norvegicus [5]) [h] | CL (mL.min-1.kg-1) (Rattus norvegicus [6]) | T1/2 (Rattus norvegicus [7]) [h]
1 | – | – | CC(C)(Oc1ccc(C(=O)c2ccc(Cl)cc2)cc1)C(=O)O [FENOFIBRIC ACID] | > 10 | > 10 | – | – | –
2 | 1.5 | 4.8 | Cc1oc(-c2ccccc2)nc1CCOc1ccc(CN(CC(=O)O)Cc2ccccc2)cc1 | 1.4 | 0.02 | – | – | –
3 | 0.425 | 0.316 | CCCCCCCN(CCc1ccc(O[C@@](C)(CC)C(=O)O)cc1)C(=O)Nc1ccc(F)cc1F | 0.538 | < 0.02 | – | – | –
4 | – | – | COc1ccc(OC(=O)N(CC(=O)O)Cc2ccc(OCCc3nc(-c4ccccc4)oc3C)cc2)cc1 [MURAGLITAZAR] | 0.25 | 0.32 | 0.4 | 3 | 7.3
